Assay results: patent US9346809B2 (LEO PHARMA A/S, priority 2009, dated 2016)
Like-named read-outs stand apart in the source and are kept apart here.

Tests used:
Assay type in all cases: biochemical
[1] = target: T1, JAK2 (catalytic domain, His-tag) (Homo sapiens, UniProt O60674); assay: JAK kinase assay (HTRF, phosphorylation of TK substrate-biotin), JAK2; conditions: ATP at Km (4 μM)
T1 construct: All four purified enzymes contain only the catalytic domain; His (N); purchased Carna Biosciences, Inc; host or cells: baculovirus expression system
T1 sequence (O60674 849-1124 limits assumed): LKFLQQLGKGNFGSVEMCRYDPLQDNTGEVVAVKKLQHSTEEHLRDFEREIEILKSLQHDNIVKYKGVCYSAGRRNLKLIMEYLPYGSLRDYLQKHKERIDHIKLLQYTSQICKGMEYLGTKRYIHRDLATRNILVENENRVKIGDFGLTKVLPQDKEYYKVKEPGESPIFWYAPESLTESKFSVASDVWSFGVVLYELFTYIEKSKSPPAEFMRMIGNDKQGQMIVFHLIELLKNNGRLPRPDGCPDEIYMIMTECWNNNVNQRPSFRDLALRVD
Summary of the method: (§1)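 Catalytic-domain kinases phosphorylated 1 μM biotin-TK substrate at ATP Km (JAK1 7 μM, JAK2 4 μM, JAK3 2 μM, TYK2 13 μM) in Hepes pH 7.0 with DTT and MgCl2, for 20-30 min at RT; JAK1 and TYK2 also had 50 nM SEB. Detection was by HTRF (streptavidin-XL665/Cryptate antibody) overnight, giving EC50.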

[2] = target: T2, JAK3 (catalytic domain, His-tag) (Homo sapiens, UniProt P52333); assay: JAK kinase assay (HTRF, phosphorylation of TK substrate-biotin), JAK3; conditions: ATP at Km (2 μM)
T2 construct: All four purified enzymes contain only the catalytic domain; His (N); purchased Carna Biosciences, Inc; host or cells: baculovirus expression system
T2 sequence (P52333 822-1111 limits assumed): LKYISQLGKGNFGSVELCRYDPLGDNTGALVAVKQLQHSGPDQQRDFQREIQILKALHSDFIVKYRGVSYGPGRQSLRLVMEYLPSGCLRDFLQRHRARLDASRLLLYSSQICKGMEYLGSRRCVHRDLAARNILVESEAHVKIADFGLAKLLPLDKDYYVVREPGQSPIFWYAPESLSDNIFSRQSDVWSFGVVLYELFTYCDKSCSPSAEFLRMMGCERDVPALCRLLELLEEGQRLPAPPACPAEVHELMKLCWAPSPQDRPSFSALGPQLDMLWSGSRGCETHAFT
Summary of the method: as §1

[3] = target: T3, TYK2 (aa 871-1187, catalytic domain, GST-tag) (Homo sapiens, UniProt P29597); assay: JAK kinase assay (HTRF, phosphorylation of TK substrate-biotin), TYK2; conditions: ATP at Km (13 μM)
T3 construct: JAK1 (aa 850-1154) and TYK2 (aa 871-1187) are expressed with an N-terminally fused GST-tag; GST (N); purchased Carna Biosciences, Inc; host or cells: baculovirus expression system
T3 sequence (P29597 871-1187): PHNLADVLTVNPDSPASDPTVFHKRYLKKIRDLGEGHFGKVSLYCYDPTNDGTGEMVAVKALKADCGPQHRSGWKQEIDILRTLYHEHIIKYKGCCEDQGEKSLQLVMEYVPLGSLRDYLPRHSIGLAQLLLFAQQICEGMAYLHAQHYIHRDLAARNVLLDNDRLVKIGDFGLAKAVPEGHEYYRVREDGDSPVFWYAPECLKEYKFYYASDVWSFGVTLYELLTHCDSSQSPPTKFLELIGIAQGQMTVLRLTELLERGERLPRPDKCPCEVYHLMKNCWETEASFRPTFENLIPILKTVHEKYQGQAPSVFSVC
Summary of the method: as §1

[4] = target: T4, JAK1 (aa 850-1154, catalytic domain, GST-tag) (Homo sapiens, UniProt P23458); assay: JAK kinase assay (HTRF, phosphorylation of TK substrate-biotin), JAK1; conditions: ATP at Km (7 μM)
T4 construct: JAK1 (aa 850-1154) and TYK2 (aa 871-1187) are expressed with an N-terminally fused GST-tag; GST (N); purchased Carna Biosciences, Inc; host or cells: baculovirus expression system
T4 sequence (P23458 850-1154): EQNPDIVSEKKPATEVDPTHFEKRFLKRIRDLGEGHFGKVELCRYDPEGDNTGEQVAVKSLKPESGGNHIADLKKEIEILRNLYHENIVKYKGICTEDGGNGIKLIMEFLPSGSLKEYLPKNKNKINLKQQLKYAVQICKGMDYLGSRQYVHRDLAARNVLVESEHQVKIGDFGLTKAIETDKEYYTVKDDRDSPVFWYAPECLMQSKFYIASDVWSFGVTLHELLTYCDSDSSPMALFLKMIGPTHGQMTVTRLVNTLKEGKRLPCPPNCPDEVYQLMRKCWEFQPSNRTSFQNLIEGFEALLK
Summary of the method: as §1

[5] = HTRF assay, read-out: JAK2 kinase inhibitory activity (EC50 indicator)
[6] = HTRF assay, read-out: JAK3 kinase inhibitory activity (EC50 indicator)
[7] = HTRF assay, read-out: TYK2 kinase inhibitory activity (EC50 indicator)
[8] = HTRF assay, read-out: JAK1 kinase inhibitory activity (EC50 indicator)
[9] = read-out: JAK2 kinase inhibitory activity (EC50 indicator)
[10] = read-out: JAK3 kinase inhibitory activity (EC50 indicator)
[11] = read-out: TYK2 kinase inhibitory activity (EC50 indicator)
[12] = read-out: JAK1 kinase inhibitory activity (EC50 indicator)
[13] = HTRF assay, read-out: JAK2 kinase inhibitory activity (EC50)
[14] = HTRF assay, read-out: JAK3 kinase inhibitory activity (EC50)
[15] = HTRF assay, read-out: TYK2 kinase inhibitory activity (EC50)
[16] = HTRF assay, read-out: JAK1 kinase inhibitory activity (EC50)

| Structure (SMILES) | EC50 [1, 5] [nM] | EC50 [2, 6] [nM] | EC50 [3, 7] [nM] | EC50 [4, 8] [nM] | EC50 [1, 9] [nM] | EC50 [2, 10] [nM] | EC50 [3, 11] [nM] | EC50 [4, 12] [nM] | also measured |
| --- | --- | --- | --- | --- | --- | --- | --- | --- | --- |
| O=C(C1CCc2ccccc21)N1CCN(c2ncnc3[nH]ccc23)CC12CC2 (centres unmarked) [Example 413, Indan-1-yl-[7-(7H-pyrrolo[2,3-d]pyrimidin-4-yl)-4,7-diaza-spiro[2.5]oct-4-yl]-methanone] | < 100 | 100 to 500 | > 500 | 100 to 500 |  |  |  |  |  |
| Cc1c[nH]c2ncnc(N3CCN(C(=O)c4ccc(C#N)cc4)C4(CC4)C3)c12 [Example 118, 4-[7-(5-Methyl-7H-pyrrolo[2,3-d]pyrimidin-4-yl)-4,7-diaza-spiro[2.5]octane-4-carbonyl]-benzonitrile] |  |  |  |  | > 500 | > 500 | > 500 | > 500 |  |
| CS(=O)(=O)c1ccc(C(=O)N2[C@@H]3CC[C@@H]2CN(c2ncnc4[nH]ccc24)C3)cc1 [Example 356, (4-Methanesulfonyl-phenyl)-[3-(7H-pyrrolo[2,3-d]pyrimidin-4-yl)-3,8-diaza-bicyclo[3.2.1]oct-8-yl]-methanone] | < 100 | 100 to 500 | > 500 | < 100 |  |  |  |  |  |
| NC(=O)c1ccc(C(=O)N2[C@@H]3CC[C@@H]2CN(c2ncnc4[nH]ccc24)C3)cc1 [Example 358, 4-[3-(7H-Pyrrolo[2,3-d]pyrimidin-4-yl)-3,8-diaza-bicyclo[3.2.1]octane-8-carbonyl]-benzamide] | < 100 | 100 to 500 | 100 to 500 | < 100 |  |  |  |  |  |
| N#CC1(C(=O)N2CCN(c3ccnc4[nH]ccc34)CC23CC3)CC1 [Example 117, 1-[7-(1H-Pyrrolo[2,3-b]pyridin-4-yl)-4,7-diaza-spiro[2.5]octane-4-carbonyl]-cyclopropanecarbonitrile] |  |  |  |  | 100 to 500 | 100 to 500 | > 500 | 100 to 500 |  |
| O=C(c1ccc2[nH]cnc2c1)N1CCN(c2ncnc3[nH]ccc23)CC12CC2 [Example 162, (1H-Benzoimidazol-5-yl)-[7-(7H-pyrrolo[2,3-d]pyrimidin-4-yl)-4,7-diaza-spiro[2.5]oct-4-yl]-methanone] |  |  |  |  | < 100 | 100 to 500 | > 500 | < 100 |  |
| O=C([C@@H]1CCCc2ccccc21)N1CCN(c2ncnc3[nH]ccc23)CC12CC2 [Example 415, [7-(7H-Pyrrolo[2,3-d]pyrimidin-4-yl)-4,7-diaza-spiro[2.5]oct-4-yl]-(1,2,3,4-tetrahydro-naphthalen-1-yl)-methanone] | 100 to 500 | > 500 | > 500 | 100 to 500 |  |  |  |  |  |
| O=C(c1cc2cc(F)cc(F)c2[nH]1)N1CCN(c2ncnc3[nH]ccc23)CC12CC2 [Example 192, (5,7-Difluoro-1H-indol-2-yl)-[7-(7H-pyrrolo[2,3-d]pyrimidin-4-yl)-4,7-diaza-spiro[2.5]oct-4-yl]-methanone] |  |  |  |  | < 100 | < 100 | < 100 | < 100 |  |
| N#Cc1cccc(CC(=O)N2CCN(c3ccnc4[nH]ccc34)CC23CC3)c1 [Example 236, 3-{2-Oxo-2-[7-(1H-pyrrolo[2,3-b]pyridin-4-yl)-4,7-diaza-spiro[2.5]oct-4-yl]-ethyl}-benzonitrile] | > 500 | > 500 | > 500 | > 500 |  |  |  |  |  |
| O=C(c1cccc2cc(O)ccc12)N1[C@@H]2CC[C@@H]1CN(c1ncnc3[nH]ccc13)C2 [Example 359, (6-Hydroxy-naphthalen-1-yl)-[3-(7H-pyrrolo[2,3-d]pyrimidin-4-yl)-3,8-diaza-bicyclo[3.2.1]oct-8-yl]-methanone] | < 100 | < 100 | 100 to 500 | < 100 |  |  |  |  |  |
| N#CCc1cccc(CC(=O)N2[C@@H]3CC[C@@H]2CN(c2ncnc4[nH]ccc24)C3)c1 [Example 346, (3-{2-Oxo-2-[3-(7H-pyrrolo[2,3-d]pyrimidin-4-yl)-3,8-diaza-bicyclo[3.2.1]oct-8-yl]-ethyl}-phenyl)-acetonitrile] | 100 to 500 | > 500 | > 500 | 100 to 500 |  |  |  |  |  |
| O=C(c1ccc2cc[nH]c2c1)N1CCN(c2ncnc3[nH]ccc23)CC12CC2 [Example 36, (1H-Indol-6-yl)-[7-(7H-pyrrolo[2,3-d]pyrimidin-4-yl)-4,7-diazaspiro[2.5]oct-4-yl]methanone] |  |  |  |  | 100 to 500 | > 500 | > 500 | 100 to 500 |  |
| S=C(NC1CCCCC1)N1CCN(c2ncnc3[nH]ccc23)CC12CC2 [Example 437, 7-(7H-Pyrrolo[2,3-d]pyrimidin-4-yl)-4,7-diaza-spiro[2.5]octane-4-carbothioic acid cyclohexylamide] |  |  |  |  |  |  |  |  | EC50 [1, 13]: 100 to 500 nM; EC50 [2, 14]: > 500 nM; EC50 [3, 15]: > 500 nM; EC50 [4, 16]: > 500 nM |
| COc1cc(C(=O)N2CCN(c3ncnc4[nH]ccc34)CC23CC3)ccc1S(N)(=O)=O [Example 378, 2-Methoxy-4-[7-(7H-pyrrolo[2,3-d]pyrimidin-4-yl)-4,7-diaza-spiro[2.5]octane-4-carbonyl]-benzenesulfonamide] | < 100 | < 100 | < 100 | < 100 |  |  |  |  |  |
| N#Cc1ccc(CC(=O)N2CCN(c3ncnc4[nH]cc(Cl)c34)CC23CC3)cc1 [Example 324, 4-{2-[7-(5-Chloro-7H-pyrrolo[2,3-d]pyrimidin-4-yl)-4,7-diaza-spiro[2.5]oct-4-yl]-2-oxo-ethyl}-benzonitrile] | < 100 | < 100 | > 500 | < 100 |  |  |  |  |  |
| CS(=O)(=O)c1cccc(C(=O)N2C3CCC2CN(c2ncnc4[nH]ccc24)C3)c1 [Example 135, (3-Methanesulfonyl-phenyl)-[3-(7H-pyrrolo[2,3-d]pyrimidin-4-yl)-3,8-diaza-bicyclo[3.2.1]oct-8-yl]-methanone] |  |  |  |  | < 100 | 100 to 500 | > 500 | < 100 |  |
| Cc1c[nH]c2ncnc(N3CCN(C(=O)c4cccc(C#N)c4)C4(CC4)C3)c12 [Example 119, 3-[7-(5-Methyl-7H-pyrrolo[2,3-d]pyrimidin-4-yl)-4,7-diaza-spiro[2.5]octane-4-carbonyl]-benzonitrile] |  |  |  |  | > 500 | > 500 | > 500 | > 500 |  |
| CC(C)(C)OC(=O)N1[C@@H]2CC[C@H]1CN(c1ncnc3[nH]ccc13)C2 [Example 9, 3-(7H-Pyrrolo[2,3-d]pyrimidin-4-yl)-3,8-diaza-bicyclo[3.2.1]octane-8-carboxylic acid tert-butyl ester] |  |  |  |  | < 100 | 100 to 500 | > 500 | 100 to 500 |  |
| COCCC(=O)N1CCN(c2ncnc3[nH]ccc23)CC12CC2 [Example 456, 3-Methoxy-1-[7-(7H-pyrrolo[2,3-d]pyrimidin-4-yl)-4,7-diaza-spiro[2.5]oct-4-yl]-propan-1-one] |  |  |  |  |  |  |  |  | EC50 [1, 13]: 100 to 500 nM; EC50 [2, 14]: 100 to 500 nM; EC50 [3, 15]: > 500 nM; EC50 [4, 16]: 100 to 500 nM |
| Cc1ccsc1C(=O)N1CCN(c2ccnc3[nH]ccc23)CC12CC2 [Example 228, (3-Methyl-thiophen-2-yl)-[7-(1H-pyrrolo[2,3-b]pyridin-4-yl)-4,7-diaza-spiro[2.5]oct-4-yl]-methanone] | < 100 | > 500 | > 500 | 100 to 500 |  |  |  |  |  |
| O=C(c1cc2c(s1)CCC2)N1CCN(c2ncnc3[nH]ccc23)CC12CC2 [Example 61, (5,6-Dihydro-4H-cyclopenta[b]thiophen-2-yl)[7-(7H-pyrrolo[2,3-d]pyrimidin-4-yl)-4,7-diaza-spiro[2.5]oct-4-yl]-methanone] |  |  |  |  | < 100 | < 100 | < 100 | < 100 |  |
| COC(=O)c1cc2c(N3CCN(C(=O)CCC#N)C4(CC4)C3)ncnc2[nH]1 [Example 340] | > 500 | > 500 | > 500 | > 500 |  |  |  |  |  |
| O=C(c1ncco1)N1[C@@H]2CC[C@@H]1CN(c1ncnc3[nH]ccc13)C2 [Example 177, Oxazol-2-yl-[3-(7H-pyrrolo[2,3-d]pyrimidin-4-yl)-3,8-diaza-bicyclo[3.2.1]oct-8-yl]-methanone] |  |  |  |  | 100 to 500 | 100 to 500 | > 500 | 100 to 500 |  |
